*1 amine or outer side, *2 acyl side, *3 side chain or, on linkers, in order; H or OH if unused. Where a SMILES comes first, the peptide text is derived from it. Bridges are numbered along the chain shown (N, C = ends). [ ]: non-standard residue; d: D form. The star is where a group is joined. ξ: configuration not given here. Phe(3,5-F2) = N[C@@H](Cc1cc(F)cc(F)c1)C(=O)O; NMepT = CN[C@H](C(=O)O)[C@@H](C)OP(=O)(O)O; NH(4-OCF3-phenyl) = FC(F)(F)Oc1ccc(N*)cc1; Pro(4S-Me) = C[C@@H]1CN[C@H](C(=O)O)C1; Pro(4R-Me) = C[C@H]1CN[C@H](C(=O)O)C1; ξPro(4R-OH) = O=C(O)C1C[C@@H](O)CN1; ξPro(4R-Me) = C[C@H]1CNC(C(=O)O)C1; NH(4-Et-phenyl) = CCc1ccc(N*)cc1; NMeT = CN[C@H](C(=O)O)[C@@H](C)O; NH(4-Me-phenyl) = Cc1ccc(N*)cc1; aThr = C[C@H](O)[C@H](N)C(=O)O; NMeA = CN[C@@H](C)C(=O)O; CO = O=C([*:1])[*:2]
Columns and labels:
Sa-ClpP [1] = target: T1, Sa-ClpP (Staphylococcus aureus, UniProt Q2G036); experiment: Casein-BODIPY assay, second described ClpP activation method (EnzCheck Protease Assay, 384 well); format: biochemical, S. aureus; conditions: values marked †: second described ClpP activation assay
T1 construct: made in house; host or cells: E. coli BL21(DE3)
T1 sequence (Q2G036 1-195): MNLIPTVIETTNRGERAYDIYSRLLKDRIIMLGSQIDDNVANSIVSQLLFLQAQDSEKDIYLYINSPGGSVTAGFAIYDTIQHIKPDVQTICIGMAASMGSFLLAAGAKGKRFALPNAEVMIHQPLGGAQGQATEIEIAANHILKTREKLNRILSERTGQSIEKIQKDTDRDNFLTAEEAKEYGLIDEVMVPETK
Protocol: Alternatively, the assay was carried out using EnzCheck Protease Assay (Molecular Probes, Catalog # E6638). The assay was performed in black 384 well, flat bottom, low volume plates (Greiner Bio-One, Monroe, N.C., catalog #784076). 10 μL of Tris*HCl buffer, pH 8.0 with 0.01% Triton X-100 was pipetted into each well using a Well-Mate (Thermo Scientific, Waltham, Mass.). 0.4 μL test compounds or controls (2% DMSO v/v) were added to each well using a Biomek FX liquid handling robot (Beckman Coulter, Indianapolis Ind.). After addition of test compounds and controls, 10 μL of master mix containing 2 μM Sa-ClpP and 2 μM substrate (Bodipy-FL labeled casein) in Tris*HCl buffer, pH 8.0 with 0.01% (v/v) Triton X-100, was pipetted into each well. All assays were performed in triplicate, under linear velocity conditions. Increase in fluorescent signal following activation of Sa-ClpP by test compounds and controls was measured over time period of 30 mins using filters with excitation at 485±15 nm and emission at 520±25 nm on a PHERAstar FS Multilabel reader (BMG, Cary, N.C.). […] Data analysis was done by measuring rate of casein degradation over time (slopes). Computed degradation rates (slopes) were normalized to positive (ADEP4) or negative (DMSO) controls. Using nonlinear regression curve fitting EC50 values and % activation were determined using the equation “log [agonist] vs. Response-variable slope (four parameters)-symmetrical” in the program Prism 6 (GraphPad Software, La Jolla, Calif. USA, www.graphpad.com).

Sa-ClpP [2] = target: T1, Sa-ClpP; experiment: Sa-ClpP casein-BODIPY ClpP activation assay, method variant not marked in Table 5; format: biochemical, S. aureus; conditions: values without ** or † mark; assay variant not stated; read-out: ClpP Activation EC50
How it was run: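 Purified S. aureus ClpP (10 μM) incubated with 25 μg/ml BODIPY FL casein and compound (0-1000 μM) in pH 8 Tris/KCl/TCEP at 37° C. Fluorescence (485/528 nm) read every 5 min over 45 min; reaction velocities fitted to dose-response for EC50 (50% activation), triplicate.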

physchem = conditions: 22 °C, aqueous buffer, kinetic from dmso stock

SMILES | EC50 (Sa-ClpP [1]) | EC50 (Sa-ClpP [2]) | solubility (physchem)
C[C@H]1C[C@H]2C(=O)O[C@@H](C)[C@H](NC(=O)[C@H](Cc3cc(F)cc(F)c3)NC(=O)Nc3ccc(OC(F)(F)F)cc3)C(=O)N3CCC[C@H]3C(=O)N(C)[C@@H]([C@@H](C)O)C(=O)N[C@@H](C)C(=O)N2C1 [Compound 36, (S)-3-(3,5-difluorophenyl)-N-((2S,6S,9S,11aS,17S,18S,20aS)-9-((R)-1-hydroxyethyl)-2,6,10,18-tetramethyl-5,8,11,16,20-pentaoxohexadecahydro-1H,5H,16H-dipyrrolo[2,1-c:2′,1′-l][1]oxa[4,7,10,13]tetraazacyclohexadecin-17-yl)-2-(3-(4-(trifluoromethoxy)phenyl)ureido)propanamide] ({NH(4-OCF3-phenyl)-CO}-[Phe(3,5-F2)][aThr]P[NMeT]A[Pro(4S-Me)]; ester 2-C) | 430 ± 10 nM |  | 
CCc1ccc(NC(=O)N[C@@H](Cc2cc(F)cc(F)c2)C(=O)N[C@@H]2C(=O)N3CCC[C@H]3C(=O)N(C)[C@@H]([C@@H](C)O)C(=O)N[C@@H](C)C(=O)N3C[C@H](C)C[C@H]3C(=O)O[C@H]2C)cc1 [Compound 42, (S)-3-(3,5-difluorophenyl)-2-(3-(4-ethylphenyl)ureido)-N-((2R,6S,9S,11aS,17S,18S,20aS)-9-((R)-1-hydroxyethyl)-2,6,10,18-tetramethyl-5,8,11,16,20-pentaoxohexadecahydro-1H,5H,16H-dipyrrolo[2,1-c:2′,1′-l][1]oxa[4,7,10,13]tetraazacyclohexadecin-17-yl)propanamide] ({NH(4-Et-phenyl)-CO}-[Phe(3,5-F2)][aThr]P[NMeT]A[Pro(4R-Me)]; ester 2-C) | 250 ± 30 nM |  | 
Cc1ccc(NC(=O)N[C@@H](Cc2cc(F)cc(F)c2)C(=O)N[C@@H]2C(=O)N3CCC[C@H]3C(=O)N(C)[C@@H]([C@@H](C)OP(=O)(O)O)C(=O)N[C@@H](C)C(=O)N3C[C@@H](C)C[C@H]3C(=O)O[C@H]2C)cc1 [Compound 188, (R)-1-((2S,6S,9S,11aS,17S,18S,20aS)-17-((S)-3-(3,5-difluorophenyl)-2-(3-(p-tolyl)ureido)propanamido)-2,6,10,18-tetramethyl-5,8,11,16,20-pentaoxohexadecahydro-1H,5H,16H-dipyrrolo[2,1-c:2′,1′-l][1]oxa[4,7,10,13]tetraazacyclohexadecin-9-yl)ethyl dihydrogen phosphate] ({NH(4-Me-phenyl)-CO}-[Phe(3,5-F2)][aThr]P[NMepT]A[Pro(4S-Me)]; ester 2-C) |  | 1800 ± 70 nM | 107 ± 2.7 µM
Cc1ccc(NC(=O)N[C@@H](Cc2cc(F)cc(F)c2)C(=O)N[C@@H]2C(=O)N3C[C@H](O)CC3C(=O)N(C)[C@@H](C)C(=O)N[C@@H](C)C(=O)N3C[C@H](C)CC3C(=O)O[C@H]2C)cc1 (stereo partly drawn) [Compound 31, (S)-3-(3,5-difluorophenyl)-N-((2S,6S,9S,11aS,13R,17S,18S,20aS)-13-hydroxy-2,6,9,10,18-pentamethyl-5,8,11,16,20-pentaoxohexadecahydro-1H,5H,16H-dipyrrolo[2,1-c:2′,1′-l][1]oxa[4,7,10,13]tetraazacyclohexadecin-17-yl)-2-(3-(p-tolyl)ureido)propanamide] ({NH(4-Me-phenyl)-CO}-[Phe(3,5-F2)][aThr][ξPro(4R-OH)][NMeA]A[ξPro(4R-Me)]; ester 2-C) | 370 ± 30 nM |  | 
Cc1ccc(NC(=O)N[C@@H](Cc2cc(F)cc(F)c2)C(=O)N[C@@H]2C(=O)N3CCC[C@H]3C(=O)N(C)[C@@H]([C@@H](C)O)C(=O)N[C@@H](C)C(=O)N3C[C@@H](C)C[C@H]3C(=O)O[C@H]2C)cc1 [Compound 35, (S)-3-(3,5-difluorophenyl)-N-((2S,6S,9S,11aS,17S,18S,20aS)-9-((R)-1-hydroxyethyl)-2,6,10,18-tetramethyl-5,8,11,16,20-pentaoxohexadecahydro-1H,5H,16H-dipyrrolo[2,1-c:2′,1′-l][1]oxa[4,7,10,13]tetraazacyclohexadecin-17-yl)-2-(3-(p-tolyl)ureido)propanamide] ({NH(4-Me-phenyl)-CO}-[Phe(3,5-F2)][aThr]P[NMeT]A[Pro(4S-Me)]; ester 2-C) | 480 ± 30 nM |  | 
Cc1ccc(NC(=O)N[C@@H](Cc2cc(F)cc(F)c2)C(=O)N[C@@H]2C(=O)N3CCC[C@H]3C(=O)N(C)[C@@H]([C@@H](C)O)C(=O)N[C@@H](C)C(=O)N3C[C@H](C)C[C@H]3C(=O)O[C@H]2C)cc1 [Compound 38, (S)-3-(3,5-difluorophenyl)-N-((2R,6S,9S,11aS,17S,18S,20aS)-9-((R)-1-hydroxyethyl)-2,6,10,18-tetramethyl-5,8,11,16,20-pentaoxohexadecahydro-1H,5H,16H-dipyrrolo[2,1-c:2′,1′-l][1]oxa[4,7,10,13]tetraazacyclohexadecin-17-yl)-2-(3-(p-tolyl)ureido)propanamide] ({NH(4-Me-phenyl)-CO}-[Phe(3,5-F2)][aThr]P[NMeT]A[Pro(4R-Me)]; ester 2-C) | 330 ± 10 nM |  | 
C[C@@H]1C[C@H]2C(=O)O[C@@H](C)[C@H](NC(=O)[C@H](Cc3cc(F)cc(F)c3)NC(=O)Nc3ccc(OC(F)(F)F)cc3)C(=O)N3CCC[C@H]3C(=O)N(C)[C@@H]([C@@H](C)O)C(=O)N[C@@H](C)C(=O)N2C1 [Compound 41, (S)-3-(3,5-difluorophenyl)-N-((2R,6S,9S,11aS,17S,18S,20aS)-9-((R)-1-hydroxyethyl)-2,6,10,18-tetramethyl-5,8,11,16,20-pentaoxohexadecahydro-1H,5H,16H-dipyrrolo[2,1-c:2′,1′-l][1]oxa[4,7,10,13]tetraazacyclohexadecin-17-yl)-2-(3-(4-(trifluoromethoxy)phenyl)ureido)propanamide] ({NH(4-OCF3-phenyl)-CO}-[Phe(3,5-F2)][aThr]P[NMeT]A[Pro(4R-Me)]; ester 2-C) | 310 ± 10 nM |  | 

Source: patent publication US10457707B2, “Substituted urea depsipeptide analogs as activators of the CLPP endopeptidase” (priority 2015, dated 2019)
